# From patent US4180577A, “Furo[2, 3d]pyrimidine derivatives and anti-ulcer containing the same” (Eisai Co., Ltd., priority 1974, dated 1979)
# “And” between values parts separate entries of the source, which are not always exact repeats. Equal entries are not always repeated. Structures can show the parent of a compound that is named as a salt.
# Assays:
# [1] = tested on: Secretion of Gastric Juice; test: Effect for Secretion of Gastric Juice (pylorus-ligated rats, Shay method); type: in vivo, male rats of SD strain; conditions: rat, 100 mg/Kg, into the duodenum; for Amount of gastric juice Vol. / Free Acid Output / Total Acid Output: 4 hours; for Amount of gastric juice Vol.: control 1.78 ± 0.26; for Free Acid Output: control 133.2 ± 32.7; for Total Acid Output: control 154.0 ± 36.0; for suppression of the amount of the gastric juice / suppression of the free acid output / suppression of the total acid output: vs control group
# Procedure: (§1) The compounds to be tested were suspended in 5% serous gum arabic solution, so as to adjust their concentration to 0.5 ml/100 g B.W. for oral administration, or 0.2 ml/100 g B.W. for duodenum administration. Indomethacin, [1-(p-chlorobenzoyl)-5-methoxy-2-methylindole-3-acetic acid] for control was suspended in 5% serous gum arabic solution, so as to adjust its concentration to 0.5 ml/100 g B.W.
# The solutions of the compounds to be tested were adjusted to pH 5.0, and administered into the duodenum. The bellys were closed. After 4 hours, the animals were slaughtered by anesthesia, and the gastric juice was collected.
# The volume of the gastric juice was measured and titrated by N/50 NaOH solution with Topfer indicator and phenolphthalein indicator, to determine the free acid output the total acid output, respectively.
# The compounds to be tested were administered into the duodenum immediately after ligaturing the pylorus.
# The medicine solution was adjusted to pH 5.0 with N--NaOH solution.
# [2] = tested on: Ligature Ulcer of the Pylorus; test: Effect on Ligature Ulcer of the Pylorus; type: in vivo, male rats of SD strain; conditions: rat, 300 mg/Kg, into the duodenum, 17 hours
# Procedure: as §1
# According to the method by H. Shay et al. [Gastroenterology 5, 43 (1945)], male rats (weighing about 320 g) of SD strain were fasted for 24 hours, and then incised the belly under the ether rausch anesthesia, and finally ligatured the pyloruses. The solution of compounds to be tested were adjusted to pH 5.0, and administered into the duodenum. The bellys were closed. After subsequent 17 hours, the animals were slaughtered by the anesthesia, and their stomaches were extirpated. More particularly, the stomaches were incised along the greater curvature. The ulcer generated at forestomach was ranged as shown in the following. The total of the ranking was named as the ulcer index.
# Greater than 1 mm, but not greater
# Greater than 3 mm, but not greater
# Greater than 5 mm, but not greater
# [3] = tested on: Immersive Stress-induced Ulcer; test: Inhibitory Effects on the Immersive Stress-induced Ulcer; type: in vivo, female rats of SD strain; conditions: rat, oral; for Percentage of inhibition (ulcer index): vs control; for Ulcer index: control 80.4 ± 3.5
# Procedure: as §1
# According to the method by K. Takagi et al. [Jap. J. Pharmacol. 18, 9 )1968)], female rats (weighing about 160 g) of SD strain were put in a cage made of wire gauze for restraint, dipped in a water bath at the temperature of 23° C. so as to cover the lower end of their breast bones, and allowed to stand for 20 hours. The animals were then slaughtered by the anesthesia, and their stomaches were extirpated. The stomaches were inflated with 10 ml of physiological saline water, and dipped in 0.5% neutral formalin solution for about 5 minutes according to the method by D. A. Brodie et al [Gastroenterology 38, 354-360 (1960)]. The stomaches were then incised along the greater curvature. The length of each ulcer (erosion) generated at adeno-stomach was measured. The total of said lengthes were assigned as the ulcer index.
# The compounds to be tested were orally administered prior to the immersion.
# [4] = tested on: Cold-restraint Stress Induced Ulcer; test: Inhibitory Effects on Cold-restraint Stress Induced Ulcer; type: in vivo, female rats of SD strain; conditions: rat, oral; for Percentage of inhibition (ulcer index) / Ulcer index: 30 minutes prior to stress; for Percentage of inhibition (ulcer index): vs control, hydrobromide; for Ulcer index: control 14.8 ± 1.7
# Procedure: as §1
# This experiment was effected by referring to the method by S. Dai et al. [Eur. J. Pharmaco. 26, 15-21 (1974)] and the method by M. M. Goldenberg et al. [Am. J. Dic. Dis 19, 4, 353-360 (1974)].
# Female rats of SD strain (weighing about 180 g) were restrained in a cage made of wire gauze, and the cage was allowed to stand in a room at the low temperature at 4° C. for two hours. After subsequent two hours, the animals were slaughtered. The stomaches were extirpated. Thereafter, the subsequent procedure was carried out in accordance with the pharmacological experiment 3.
# The compounds to be tested were orally administered 30 minutes prior to exposure of the stress.
# [5] = tested on: Indomethacin-induced Ulcer; test: Effects on Indomethacin-induced Ulcer; type: in vivo, Wister strain male rats; conditions: rat, oral, 30 minutes prior to Indomethacin 40 mg/Kg; for Percentage of inhibition (ulcer index): vs control; for Ulcer index: control 9.30 ± 3.09; for Percentage of Incidence of Ulcer: control 75
# Procedure: as §1
# Wister strain male rats (weighing about 230 g) were subjected to the fast for 24 hours. 40 mg/Kg of the Indomethacin were orally administered, respectively. After 4 hours from the administration, the animals were slaughtered and their stomaches were extirpated. The subsequent procedures were carried out in accordance with the pharmacological experiment 3.
# The compounds to be tested were orally administered 30 minutes prior to the administration of Indomethacin.
structure (smiles),measurement,setting,value
"C=CCSc1nc(N)c2c(C)coc2n1 [C, 2-Allylmercapto-4-amino-5-methyl-furo[2, 3d]pyrimidine]",Amount of gastric juice Vol.,[1],0.49 ± 0.11 (ml)/100g B.W.
same,Free Acid Output,[1],18.2 ± 7.1 μEq/100g B.W.
same,Total Acid Output,[1],33.1 ± 7.6 μEq/100g B.W.
same,suppression of the amount of the gastric juice,[1],over 54%
same,suppression of the free acid output,[1],over 69%
same,suppression of the total acid output,[1],over 57%
"CCSc1nc(N)c2c(C)coc2n1 [Compound A, 2-Ethylmercapto-4-amino-5-methyl-furo[2, 3d]pyrimidine hydrobromide]",Amount of gastric juice Vol.,[1],0.81 ± 0.15 (ml)/100g B.W.
same,Free Acid Output,[1],41.0 ± 16.6 μEq/100g B.W.
same,Total Acid Output,[1],65.8 ± 20.4 μEq/100g B.W.
same,suppression of the amount of the gastric juice,[1],over 54%
same,suppression of the free acid output,[1],over 69%
same,suppression of the total acid output,[1],over 57%
same,Percentage of inhibition (ulcer index),[2]; vs control,100%
same,Ulcer index,[2]; control 54 ± 14,0 ± 0 mm
same,Percentage of inhibition (ulcer index),[3]; 150 mg/Kg,21.0%
same,Ulcer index,[3]; 150 mg/Kg,63.5 ± 6.5 mm
same,Percentage of inhibition (ulcer index),[3]; 300 mg/Kg,38.7%
same,Ulcer index,[3]; 300 mg/Kg,49.3 ± 3.4 mm
same,dose dependence of ulcer inhibition,[3]; 150 and 300 mg/Kg,dose dependent
same,Percentage of inhibition (ulcer index),"[4]; 50 mg/Kg, 50 mg/kg",78.4% and 78%
same,Ulcer index,[4]; 50 mg/Kg,3.2 ± 1.0 mm
same,Percentage of inhibition (ulcer index),"[4]; 100 mg/Kg, 100 mg/kg",85.8% and 86%
same,Ulcer index,[4]; 100 mg/Kg,2.1 ± 0.6 mm
same,dose dependence of ulcer inhibition,[4]; 50 and 100 mg/Kg,dose dependent
same,Percentage of inhibition (ulcer index),[5]; 25 mg/Kg,82%
same,Ulcer index,[5]; 25 mg/Kg,1.67 ± 1.00 mm
same,Percentage of Incidence of Ulcer,[5]; 25 mg/Kg,38%
same,Percentage of inhibition (ulcer index),[5]; 50 mg/Kg,100%
same,Ulcer index,[5]; 50 mg/Kg,0 ± 0 mm
same,Percentage of Incidence of Ulcer,[5]; 50 mg/Kg,0%
same,Percentage of inhibition (ulcer index),[5]; 100 mg/Kg,98%
same,Ulcer index,[5]; 100 mg/Kg,0.20 ± 0.19 mm
same,Percentage of Incidence of Ulcer,[5]; 100 mg/Kg,13%
"CSc1nc(N)c2c(C)coc2n1 [B, 2-Methylmercapto-4-amino-5-methyl-furo[2, 3d]pyrimidine hydrobromide]",Amount of gastric juice Vol.,[1],0.51 ± 0.09 (ml)/100g B.W.
same,Free Acid Output,[1],16.5 ± 5.5 μEq/100g B.W.
same,Total Acid Output,[1],37.8 ± 5.6 μEq/100g B.W.
same,suppression of the amount of the gastric juice,[1],over 54%
same,suppression of the free acid output,[1],over 69%
same,suppression of the total acid output,[1],over 57%
